Assay results as given in patent US11166891B2, “Bis phenyl hexa trien derivatives, preparation method thereof, and composition for skin whitening containing the same as an active ingredient” (Korea Research Institute of Chemical Technology, priority 2018, dated 2021).

How the values were obtained:
mushroom tyrosinase = assay: Tyrosinase activity inhibition (L-DOPA oxidation); format: biochemical; details: pH 7.0, FIG. 8; for inhibitory effect on tyrosinase activity: 6.25 μM (equal concentration)
Method: Samples were dissolved in an organic solvent such as ethanol, which were diluted in a proper buffer such as 100 mM phosphate buffer (pH 7.0). Those samples diluted at a proper concentration in order to inhibit the activity to DOPA oxidation reaction were used as the sample solutions for the experiment. 850 μL of 100 mM phosphate buffer (pH 7.0), 50 μL of the sample solution and 50 μL of mushroom tyrosinase (2000 U/ml) were loaded in a test tube in that order, followed by reaction at 37° C. for 5 minutes. 50 μL of 0.06 mM L-DOPA (L-3,4-dihydroxyphenylalanine) solution was added thereto, and then OD475 was measured using a microplate reader. After reacting the solution at 37° C. for 15 minutes, OD475 was measured again. DMSO was used as the control and Kojic acid was used for the positive control.
Tyrosinase activity inhibition rate (%)=[(A-B)/A]×100
A: difference of OD in the control group (OD after the reaction—OD before the reaction)
B: difference of OD in the experimental group (OD after the reaction—OD before the reaction)

B16F10 melanoma cells = assay: Cytotoxicity, MTT assay; format: cell-based; details: 48 hours; for cytotoxicity: at the concentration of 10 μM or more
Method: B16F10 melanoma cells were distributed in a 96-well plate at the density of 2×10^3 cells/well. The cells were cultured in DMEM supplemented with 10% fetal bovine serum (FBS) at 37° C. in 5% CO2 for 24 hours. The cells were exposed on the compounds of example and comparative examples 1˜4 at the set concentration each for 48 hours. MTT assay was performed to evaluate cytotoxicity. To perform MTT assay, MTT solution was added to the cells, followed by reaction for 2 hours. Then, DMSO was added thereto to dissolve formazan crystals, followed by measurement of OD570.

[1] = test system: melanin synthesis in B16F10 melanoma cells; assay: Melanin synthesis inhibition; format: cell-based; details: α-MSH 10 nM, 72 hours
Method: B16F10 melanoma cells were distributed in a 96-well plate at the density of 3×10^5 cells/well. The cells were cultured in DMEM supplemented with 10% FBS at 37° C. in 5% CO2 for 24 hours. […] The cells were harvested, followed by dissolving in 1 N NaOH by heating at 80° C. for 20 minutes. Then, OD490 was measured. The melanin synthesis inhibition rate was calculated as follows.
Melanin inhibition rate (%)=[(C−S)/C]×100
C: OD when α-MSH alone was treated.
S: OD when each sample was treated.

[2] = Antioxidative effect, DPPH radical scavenging activity test; details: 37° C., 30 minutes, FIG. 5
Method: The antioxidative effect was evaluated by 2,2-diphenyl-1-picrylhydrazyl (DPPH) radical scavenging activity test.
Dimethyl sulfoxide (DMSO), vitamin C and the compounds of example and comparative examples 1˜4 were added to a 96-well plate at each designated concentration, and 200 μL of 200 μM DPPH methanolic solution was added to each well. The plate was shaken gently to mix them all, followed by reaction at 37° C. for 30 minutes. Then, OD515 was measured. DMSO was used as the control for the measurement of antioxidative effect and vitamin C was used as the positive control for the measurement of antioxidative effect.

[3] = test system: TRP 1 (tyrosinase-related protein 1) gene expression in B16F10 melanoma cells; assay: Inhibition of TRP 1 gene expression (real-time PCR); format: cell-based; details: α-MSH 10 nM, compound 2 μM, 72 hours, FIG. 4a
Method: (§1) B16F10 melanoma cells were distributed in a 6-well plate, to which α-MSH (10 nM) (melanin synthesis inducing substance, alpha-melanocyte-stimulating hormone) and the compounds of example and comparative examples 1˜4 were treated at the concentration of 2 μM each, followed by exposure-culture for 72 hours. Then, the cells were harvested and total RNA of the cells was extracted using RNeasy mini kit (Qiagen). CDNA was synthesized by using M-MLV reverse transcriptase, 5X first-strand butter, dNTP mix and oligo(dT) primer (Thermo Fisher Scientific). The cDNA product, the primers of each gene and LightCycler® MultiplexMasters (Roche) were mixed, followed by SYBR Green-based real-time PCR using LightCycler® NanoInstrument (Roche). To relatively evaluate the level of tyrosinase mRNA expression, the expression was corrected based on the level of β-actin mRNA expression. The PCR conditions for gene amplification are as follows.
(§2) Evaluation of TRP 1 and TRP 2 gene expression was performed by the same manner as described in the evaluation of tyrosinase gene expression. Information on the primers used for the amplification of TRP 1 and TRP 2 gene expression is as follows.

[4] = test system: TRP 2 (tyrosinase-related protein 2) gene expression in B16F10 melanoma cells; assay: Inhibition of TRP 2 gene expression (real-time PCR); format: cell-based; details: α-MSH 10 nM, compound 2 μM, 72 hours, FIG. 4b
Method: as §1, §2

[5] = test system: tyrosinase gene expression in B16F10 melanoma cells; assay: Inhibition of tyrosinase gene expression (real-time PCR); format: cell-based; details: α-MSH 10 nM, compound 2 μM, 72 hours, mRNA corrected to β-actin, FIG. 2
Method: as §1
Denaturation: 95° C., 10 seconds
Annealing: melting point of each primer, 10 seconds
Extension/Detection: 72° C., 20 seconds
Total cycle number: 45 cycles
Information on the primers used for the amplification of tyrosinase gene expression and information on the primers for β-actin used as a correction gene are as follows.

[6] = test system: MITF (microphthalmia-associated transcription factor) gene expression in B16F10 melanoma cells; assay: Inhibition of MITF gene expression (real-time PCR); format: cell-based; details: α-MSH 10 nM, compound 2 μM, 72 hours, FIG. 3
Method: as §1
Evaluation of MITF gene expression was performed by the same manner as described in the evaluation of tyrosinase gene expression in experimental example 1. Information on the primers used for the amplification of MITF gene expression is as follows.

SMILES: COc1cccc(/C=C/C=C/C=C/c2cccc(OC)c2OC)c1OC [compound of example, (1E,3E,5E)-1,6-bis(2,3-dimethoxyphenyl)hexa-1,3,5-triene]
- reduction of tyrosinase activity (mushroom tyrosinase; 6.25 μM): approximately 20%
- cell survival rate (B16F10 melanoma cells; concentration increased from 5 μM to 15 μM, FIG. 6): ≥ 80%
- melanin content in the cells ([1]; versus comparative examples, FIG. 7): significantly lower
- melanin content in media and cells ([1]; compound 1 μM, versus comparative examples 1˜4, FIG. 7): lower in both media and cells
- antioxidative effect (DPPH radical scavenging activity) ([2]; 40 μM, compared with comparative examples 1˜4): excellent antioxidative effect
- antioxidative effect (DPPH radical scavenging activity) ([2]; about 25 μM, compared with comparative examples 1˜3): excellent antioxidative effect
- inhibitory effect on TRP 1 gene expression (relative expression level) [3]: excellent in inhibiting TRP1 and TRP2 gene expression
- inhibitory effect on TRP 2 gene expression (relative expression level) [4]: excellent in inhibiting TRP1 and TRP2 gene expression
- inhibitory effect on tyrosinase gene expression (relative expression level) [5]: excellent in inhibiting tyrosinase gene expression
- inhibitory effect on MITF gene expression (relative expression level) [6]: excellent in inhibiting MITF gene expression

SMILES: COc1cc(/C=C/C=C/C=C/c2ccc(O)c(OC)c2)ccc1O [comparative example 1, 4,4′-((1E,3E,5E)-hexa-1,3,5-triene-1,6-diyl)bis(2-methoxyphenol), reference compound]
- cytotoxicity (B16F10 melanoma cells): strong cytotoxicity
- inhibitory effect on tyrosinase gene expression (relative expression level) [5]: hardly had inhibitory effect on the expression of tyrosinase gene

SMILES: COc1ccc(/N=C/c2ccc(O)cc2O)cc1 [compound 2, (E)-4-((4-methoxyphenylimino)methyl)benzene-1,3-diol]
- inhibitory effect on tyrosinase activity (mushroom tyrosinase): did not show inhibitory effect on tyrosinase activity

SMILES: COc1ccc(/C=C/C=C/C=C/c2ccc(OC)c(O)c2)cc1O [compound 4, 5,5′-((1E,3E,5E)-hexa-1,3,5-triene-1,6-diyl)bis(2-methoxyphenol)]
- cytotoxicity (B16F10 melanoma cells): strong cytotoxicity

SMILES: Oc1ccc(/C=C/C=C/C=C/c2ccc(O)cc2)cc1 [compound 3, 4,4′-((1E,3E,5E)-hexa-1,3,5-triene-1,6-diyl)diphenol]
- inhibitory effect on tyrosinase activity (mushroom tyrosinase): did not show inhibitory effect on tyrosinase activity
- cytotoxicity (B16F10 melanoma cells): strong cytotoxicity
